Blank lines part the entries; values can stand above or below the compound they belong to.
Columns and labels:
[1] = target: T1, Serine/threonine-protein kinase TAO1 (Homo sapiens) (UniProt Q7L7X3); assay: Selectivity interaction (KinomeScan (DiscoverX)) EUB0000666a TAOK1; details: at 10 µM
T1 sequence (whole entry): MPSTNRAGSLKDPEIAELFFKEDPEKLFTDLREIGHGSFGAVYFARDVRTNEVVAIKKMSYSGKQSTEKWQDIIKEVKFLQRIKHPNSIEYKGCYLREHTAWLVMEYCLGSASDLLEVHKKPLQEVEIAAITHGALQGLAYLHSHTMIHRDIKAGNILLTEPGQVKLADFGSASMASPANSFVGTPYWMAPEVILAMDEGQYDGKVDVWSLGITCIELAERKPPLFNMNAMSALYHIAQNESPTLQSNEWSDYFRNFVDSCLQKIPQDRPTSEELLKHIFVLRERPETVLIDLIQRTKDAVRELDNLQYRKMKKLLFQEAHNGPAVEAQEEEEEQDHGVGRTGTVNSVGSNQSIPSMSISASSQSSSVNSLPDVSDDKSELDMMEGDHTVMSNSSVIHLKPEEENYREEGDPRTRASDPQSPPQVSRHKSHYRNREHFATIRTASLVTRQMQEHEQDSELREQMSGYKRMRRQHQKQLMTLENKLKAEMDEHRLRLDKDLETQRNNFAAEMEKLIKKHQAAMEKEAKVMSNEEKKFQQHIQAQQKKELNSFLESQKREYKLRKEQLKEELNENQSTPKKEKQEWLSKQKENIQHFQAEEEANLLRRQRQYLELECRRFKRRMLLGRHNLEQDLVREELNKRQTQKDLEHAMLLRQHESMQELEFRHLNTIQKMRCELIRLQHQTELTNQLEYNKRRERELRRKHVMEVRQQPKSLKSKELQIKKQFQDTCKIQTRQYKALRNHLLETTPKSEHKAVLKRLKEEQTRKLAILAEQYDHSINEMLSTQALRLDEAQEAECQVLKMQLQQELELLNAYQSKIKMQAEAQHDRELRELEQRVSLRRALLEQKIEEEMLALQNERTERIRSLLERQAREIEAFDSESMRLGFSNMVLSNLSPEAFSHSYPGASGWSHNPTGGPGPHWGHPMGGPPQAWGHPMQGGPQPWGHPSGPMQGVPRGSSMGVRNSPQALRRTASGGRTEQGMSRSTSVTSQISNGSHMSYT

[2] = target: Calcium/calmodulin-dependent protein kinase kinase 1 (Homo sapiens) (UniProt Q8N5S9); assay: Selectivity interaction (KinomeScan (DiscoverX)) EUB0000607a CAMKK1; details: at 10 µM
Sequence of Calcium/calmodulin-dependent protein kinase kinase 1 (Homo sapiens) (Q8N5S9 whole entry, looked up): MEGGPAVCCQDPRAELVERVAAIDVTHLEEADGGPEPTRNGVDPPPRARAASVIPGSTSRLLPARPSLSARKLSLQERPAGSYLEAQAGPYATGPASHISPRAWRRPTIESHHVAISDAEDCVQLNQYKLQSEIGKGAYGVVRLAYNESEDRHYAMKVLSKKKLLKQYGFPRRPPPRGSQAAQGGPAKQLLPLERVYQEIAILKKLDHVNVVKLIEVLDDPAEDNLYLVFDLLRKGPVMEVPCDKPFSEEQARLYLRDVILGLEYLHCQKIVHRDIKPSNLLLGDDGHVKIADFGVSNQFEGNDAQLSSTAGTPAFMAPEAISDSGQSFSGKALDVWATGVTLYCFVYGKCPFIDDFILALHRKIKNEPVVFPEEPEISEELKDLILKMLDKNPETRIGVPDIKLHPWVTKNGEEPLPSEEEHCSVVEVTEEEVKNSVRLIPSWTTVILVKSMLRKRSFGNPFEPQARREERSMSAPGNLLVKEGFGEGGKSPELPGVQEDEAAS

[3] = target: NT-3 growth factor receptor (Homo sapiens, UniProt Q16288); assay: Selectivity interaction (ProQinase) EUB0000171b NTRK3
Sequence of NT-3 growth factor receptor (Q16288 32-839 limits assumed): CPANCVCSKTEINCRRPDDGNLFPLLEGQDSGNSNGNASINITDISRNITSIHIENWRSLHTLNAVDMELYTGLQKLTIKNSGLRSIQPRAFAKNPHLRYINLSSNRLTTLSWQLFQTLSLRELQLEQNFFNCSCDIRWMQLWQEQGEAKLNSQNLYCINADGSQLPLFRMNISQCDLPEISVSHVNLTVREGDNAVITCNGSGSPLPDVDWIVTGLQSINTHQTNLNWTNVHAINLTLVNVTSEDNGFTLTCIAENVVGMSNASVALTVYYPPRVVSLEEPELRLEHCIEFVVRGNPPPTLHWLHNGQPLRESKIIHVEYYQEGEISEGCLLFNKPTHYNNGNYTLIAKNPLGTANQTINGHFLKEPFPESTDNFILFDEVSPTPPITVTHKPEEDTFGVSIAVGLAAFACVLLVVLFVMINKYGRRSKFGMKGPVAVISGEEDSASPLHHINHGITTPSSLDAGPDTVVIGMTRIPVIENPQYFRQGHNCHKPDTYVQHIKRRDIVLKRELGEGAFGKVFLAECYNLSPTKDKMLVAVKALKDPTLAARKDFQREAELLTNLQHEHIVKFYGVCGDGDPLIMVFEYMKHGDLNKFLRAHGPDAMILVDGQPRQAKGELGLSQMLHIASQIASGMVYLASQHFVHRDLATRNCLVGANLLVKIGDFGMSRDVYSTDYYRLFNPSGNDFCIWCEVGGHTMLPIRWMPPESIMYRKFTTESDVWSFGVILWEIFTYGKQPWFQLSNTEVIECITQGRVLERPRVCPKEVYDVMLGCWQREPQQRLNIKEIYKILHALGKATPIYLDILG

Mu-type opioid receptor = Mu-type opioid receptor (Homo sapiens, UniProt P35372); assay: Selectivity interaction (Panel of non-epigenetic targets (kinases, GPCRs, ion channels, and transporters, Eurofins) ) EUB0000271b OPRM1; details: at 1 µM
Sequence of Mu-type opioid receptor (P35372 whole entry): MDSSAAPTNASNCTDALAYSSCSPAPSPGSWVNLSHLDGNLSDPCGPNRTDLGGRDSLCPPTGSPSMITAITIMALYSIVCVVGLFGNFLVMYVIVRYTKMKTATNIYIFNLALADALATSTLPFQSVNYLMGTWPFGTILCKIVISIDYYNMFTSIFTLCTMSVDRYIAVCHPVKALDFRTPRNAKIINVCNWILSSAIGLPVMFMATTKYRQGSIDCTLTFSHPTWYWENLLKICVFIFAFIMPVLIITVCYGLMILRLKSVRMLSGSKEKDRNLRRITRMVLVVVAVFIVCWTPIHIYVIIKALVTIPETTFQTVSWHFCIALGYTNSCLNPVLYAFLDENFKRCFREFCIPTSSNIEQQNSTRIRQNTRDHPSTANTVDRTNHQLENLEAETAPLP

[4] = target: Mitogen-activated protein kinase kinase kinase 20 (Homo sapiens) (UniProt Q9NYL2); assay: Selectivity interaction (KinomeScan (DiscoverX)) EUB0000655a MAP3K20; details: at 10 µM
Sequence of Mitogen-activated protein kinase kinase kinase 20 (Homo sapiens) (Q9NYL2 2-800 limits assumed): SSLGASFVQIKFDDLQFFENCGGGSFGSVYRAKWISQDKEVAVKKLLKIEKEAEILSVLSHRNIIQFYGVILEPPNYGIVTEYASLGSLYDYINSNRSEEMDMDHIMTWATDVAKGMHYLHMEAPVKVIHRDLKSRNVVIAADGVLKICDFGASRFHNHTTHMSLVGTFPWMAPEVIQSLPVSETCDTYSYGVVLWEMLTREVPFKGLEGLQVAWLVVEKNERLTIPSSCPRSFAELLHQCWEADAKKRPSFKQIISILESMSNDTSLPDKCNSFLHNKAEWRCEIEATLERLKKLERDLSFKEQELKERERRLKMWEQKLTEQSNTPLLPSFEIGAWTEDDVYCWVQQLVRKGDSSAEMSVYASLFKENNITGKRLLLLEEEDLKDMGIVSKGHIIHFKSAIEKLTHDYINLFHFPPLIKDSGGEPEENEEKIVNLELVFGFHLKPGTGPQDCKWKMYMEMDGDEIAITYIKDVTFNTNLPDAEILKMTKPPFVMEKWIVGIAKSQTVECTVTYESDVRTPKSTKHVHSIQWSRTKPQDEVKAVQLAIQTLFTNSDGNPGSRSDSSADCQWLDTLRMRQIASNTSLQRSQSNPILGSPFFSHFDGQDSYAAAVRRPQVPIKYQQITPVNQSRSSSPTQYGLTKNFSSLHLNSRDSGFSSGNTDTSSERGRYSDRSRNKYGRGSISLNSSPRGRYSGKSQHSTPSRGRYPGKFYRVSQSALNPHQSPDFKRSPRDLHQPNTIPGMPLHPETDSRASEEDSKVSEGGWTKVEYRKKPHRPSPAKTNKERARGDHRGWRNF

[5] = target: Phosphatidylinositol 4-phosphate 3-kinase C2 domain-containing subunit beta (Homo sapiens) (UniProt O00750); assay: Selectivity interaction (KinomeScan (DiscoverX)) EUB0000618a PIK3C2B; details: at 10 µM
Sequence of Phosphatidylinositol 4-phosphate 3-kinase C2 domain-containing subunit beta (Homo sapiens) (O00750 whole entry, the tested form may be a part): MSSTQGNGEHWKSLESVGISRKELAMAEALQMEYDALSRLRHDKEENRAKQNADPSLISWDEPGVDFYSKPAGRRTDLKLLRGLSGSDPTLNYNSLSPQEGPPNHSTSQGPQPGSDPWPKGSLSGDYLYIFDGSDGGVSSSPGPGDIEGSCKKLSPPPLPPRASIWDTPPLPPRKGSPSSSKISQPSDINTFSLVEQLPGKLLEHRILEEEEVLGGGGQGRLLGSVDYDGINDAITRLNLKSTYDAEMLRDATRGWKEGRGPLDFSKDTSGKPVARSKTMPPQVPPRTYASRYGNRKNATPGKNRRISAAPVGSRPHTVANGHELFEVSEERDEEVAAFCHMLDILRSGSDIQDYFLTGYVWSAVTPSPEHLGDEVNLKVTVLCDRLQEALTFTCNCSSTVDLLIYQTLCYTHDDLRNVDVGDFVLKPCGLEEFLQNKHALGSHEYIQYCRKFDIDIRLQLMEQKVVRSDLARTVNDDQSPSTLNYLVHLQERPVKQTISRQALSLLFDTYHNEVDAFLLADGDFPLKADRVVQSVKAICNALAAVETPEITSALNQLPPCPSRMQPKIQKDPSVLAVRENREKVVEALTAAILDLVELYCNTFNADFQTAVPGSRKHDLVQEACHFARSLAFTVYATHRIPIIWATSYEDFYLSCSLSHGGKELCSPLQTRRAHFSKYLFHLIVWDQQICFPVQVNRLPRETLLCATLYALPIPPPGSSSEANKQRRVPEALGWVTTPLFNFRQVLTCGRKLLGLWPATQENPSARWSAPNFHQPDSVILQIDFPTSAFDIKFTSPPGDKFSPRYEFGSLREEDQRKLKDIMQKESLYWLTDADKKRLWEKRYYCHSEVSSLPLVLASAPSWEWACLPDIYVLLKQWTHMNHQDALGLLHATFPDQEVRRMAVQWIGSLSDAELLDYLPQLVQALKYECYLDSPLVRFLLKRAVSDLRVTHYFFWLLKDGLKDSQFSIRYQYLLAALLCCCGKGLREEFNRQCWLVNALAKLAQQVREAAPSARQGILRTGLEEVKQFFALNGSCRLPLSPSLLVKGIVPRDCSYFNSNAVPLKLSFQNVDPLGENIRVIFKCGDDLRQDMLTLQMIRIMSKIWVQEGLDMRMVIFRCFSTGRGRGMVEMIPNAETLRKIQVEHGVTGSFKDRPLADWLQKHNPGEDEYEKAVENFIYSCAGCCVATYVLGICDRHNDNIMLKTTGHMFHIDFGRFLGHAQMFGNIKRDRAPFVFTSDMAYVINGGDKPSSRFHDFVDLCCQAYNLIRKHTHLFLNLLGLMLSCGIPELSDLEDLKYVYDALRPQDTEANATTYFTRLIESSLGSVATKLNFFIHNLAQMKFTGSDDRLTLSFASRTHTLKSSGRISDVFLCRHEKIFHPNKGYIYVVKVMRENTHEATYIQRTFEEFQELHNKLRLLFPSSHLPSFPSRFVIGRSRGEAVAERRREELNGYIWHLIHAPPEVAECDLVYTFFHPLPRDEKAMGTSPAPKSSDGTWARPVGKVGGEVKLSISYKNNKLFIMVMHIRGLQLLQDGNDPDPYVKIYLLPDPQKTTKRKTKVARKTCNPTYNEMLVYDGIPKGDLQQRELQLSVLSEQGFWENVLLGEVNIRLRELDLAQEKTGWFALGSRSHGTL

[6] = target: T2, Mitogen-activated protein kinase kinase kinase 6 (Homo sapiens) (UniProt O95382); assay: Selectivity interaction (KinomeScan (DiscoverX)) EUB0001619a MAP3K6; details: at 1 µM
T2 sequence (whole entry): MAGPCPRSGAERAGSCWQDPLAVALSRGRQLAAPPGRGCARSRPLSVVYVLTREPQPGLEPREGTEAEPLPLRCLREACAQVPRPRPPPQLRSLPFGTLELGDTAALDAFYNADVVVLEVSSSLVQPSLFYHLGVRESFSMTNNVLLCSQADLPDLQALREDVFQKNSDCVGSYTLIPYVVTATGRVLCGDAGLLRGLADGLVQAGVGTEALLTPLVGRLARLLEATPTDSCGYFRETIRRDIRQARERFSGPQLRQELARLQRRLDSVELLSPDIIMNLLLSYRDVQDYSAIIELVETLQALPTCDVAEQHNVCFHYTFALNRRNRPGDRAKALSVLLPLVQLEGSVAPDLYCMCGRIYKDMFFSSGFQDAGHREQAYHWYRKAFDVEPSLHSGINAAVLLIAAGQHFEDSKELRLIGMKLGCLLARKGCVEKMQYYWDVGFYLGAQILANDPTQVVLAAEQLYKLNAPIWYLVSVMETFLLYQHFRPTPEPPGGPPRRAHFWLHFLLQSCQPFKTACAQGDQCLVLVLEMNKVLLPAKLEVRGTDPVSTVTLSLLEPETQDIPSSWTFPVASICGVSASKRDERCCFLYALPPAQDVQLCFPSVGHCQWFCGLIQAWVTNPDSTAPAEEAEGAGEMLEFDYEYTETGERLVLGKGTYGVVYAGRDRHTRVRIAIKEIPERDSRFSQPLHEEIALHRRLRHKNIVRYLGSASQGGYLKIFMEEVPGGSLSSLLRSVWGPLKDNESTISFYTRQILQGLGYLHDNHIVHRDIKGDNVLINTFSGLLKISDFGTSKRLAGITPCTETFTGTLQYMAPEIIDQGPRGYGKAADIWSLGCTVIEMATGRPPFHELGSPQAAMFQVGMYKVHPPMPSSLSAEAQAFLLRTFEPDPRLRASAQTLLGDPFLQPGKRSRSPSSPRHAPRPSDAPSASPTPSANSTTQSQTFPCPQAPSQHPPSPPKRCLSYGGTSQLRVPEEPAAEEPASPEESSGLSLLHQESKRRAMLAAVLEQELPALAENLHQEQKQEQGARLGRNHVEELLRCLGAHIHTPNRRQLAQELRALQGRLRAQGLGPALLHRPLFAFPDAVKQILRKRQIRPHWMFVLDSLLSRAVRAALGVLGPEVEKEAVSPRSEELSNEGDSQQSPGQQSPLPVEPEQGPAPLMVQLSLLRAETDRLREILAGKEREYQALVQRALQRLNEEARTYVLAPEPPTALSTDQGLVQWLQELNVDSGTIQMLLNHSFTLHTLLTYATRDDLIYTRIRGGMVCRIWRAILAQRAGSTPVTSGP

[7] = target: Mitogen-activated protein kinase 9 (Homo sapiens, UniProt P45984); assay: Selectivity interaction (KinomeScan (DiscoverX)) EUB0001619a MAPK9; details: at 1 µM
Sequence of Mitogen-activated protein kinase 9 (P45984 whole entry, looked up): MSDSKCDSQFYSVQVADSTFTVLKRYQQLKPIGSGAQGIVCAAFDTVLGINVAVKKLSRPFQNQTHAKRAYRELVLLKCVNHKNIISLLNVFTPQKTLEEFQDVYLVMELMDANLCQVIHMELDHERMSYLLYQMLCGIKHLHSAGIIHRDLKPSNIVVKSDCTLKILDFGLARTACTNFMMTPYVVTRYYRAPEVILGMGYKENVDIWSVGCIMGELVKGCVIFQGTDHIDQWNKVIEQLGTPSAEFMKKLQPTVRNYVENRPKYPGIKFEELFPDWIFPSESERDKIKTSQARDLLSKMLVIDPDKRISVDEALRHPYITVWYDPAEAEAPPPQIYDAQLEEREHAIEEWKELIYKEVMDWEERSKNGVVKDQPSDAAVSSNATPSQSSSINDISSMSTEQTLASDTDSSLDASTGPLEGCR

[8] = target: Serine/threonine-protein kinase 25 (Homo sapiens) (UniProt O00506); assay: Selectivity interaction (ActivX KiNativ screen (ex vivo kinase selectivity in human PBMCs)) EUB0001619a STK25; format: cell-based; details: PBMC, at 1 µM
Sequence of Serine/threonine-protein kinase 25 (Homo sapiens) (O00506 whole entry, looked up): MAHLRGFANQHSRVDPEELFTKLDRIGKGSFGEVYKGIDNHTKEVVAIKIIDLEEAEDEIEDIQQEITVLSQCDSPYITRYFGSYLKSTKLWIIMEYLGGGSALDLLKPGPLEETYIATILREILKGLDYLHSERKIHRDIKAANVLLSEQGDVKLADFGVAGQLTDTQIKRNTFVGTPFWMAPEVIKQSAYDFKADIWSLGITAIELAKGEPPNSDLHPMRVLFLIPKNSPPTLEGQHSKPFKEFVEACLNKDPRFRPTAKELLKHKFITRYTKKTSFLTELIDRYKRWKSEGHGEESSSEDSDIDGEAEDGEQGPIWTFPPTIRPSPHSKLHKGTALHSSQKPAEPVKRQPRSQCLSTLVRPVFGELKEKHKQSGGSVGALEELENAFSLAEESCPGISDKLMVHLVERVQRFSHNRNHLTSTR

SMILES: O=C(NOC[C@H](O)CO)c1ccc(F)c(F)c1Nc1ccc(I)cc1F
% of control [1]: 100%

SMILES: CNC(=O)Nc1ccc(-c2nc(N3CC4CCC(C3)O4)c3cnn(C4CCC5(CC4)OCCO5)c3n2)cc1
% of control [2]: 100%

% of control ([3]; at 1 µM): 99% | % of control ([3]; at 5 µM): 79%
SMILES: C=CC(=O)Nc1cccc(C(=O)Nc2ccc(Nc3cc(-c4[nH]c(SC)nc4C)ccn3)cc2)c1

SMILES: Cc1cc(C)cc([C@@H]2c3cc(C)ccc3NC(=O)CN2C(=O)c2ccc(Br)s2)c1
% of inhibition (Mu-type opioid receptor): 4%

SMILES: CN(C)CCOc1ccc(-c2nc(-c3ccncc3)c(-c3ccc4c(c3)CC/C4=N\O)[nH]2)cc1
% of control [4]: 84%

SMILES: O[C@H]1CC[C@H](Nc2ncc3nc(Nc4c(F)cc(F)cc4F)n([C@H]4CCOC4)c3n2)CC1
% of control [5]: 97%

SMILES: N#Cc1cccc(-c2c[nH]c3ncnc(N4CCOCC4)c23)c1
% of control [6]: 57% | % of control [7]: 87% | % of inhibition [8]: 39%
